Drawing on patent publication US11786519B2, “Apoptosis-inducing agents for the treatment of cancer and immune and autoimmune diseases” (AbbVie Inc., priority 2011, dated 2023), this text covers Ki for 16 molecules.

Structures are written as SMILES.

This test has as its target Bcl-xL (Homo sapiens, UniProt Q07817). The experiment in a line: TR-FRET binding assay, competition with F-Bak for Bcl-xL. To be noted: competition with F-Bak probe, GST-Bcl-xL. The procedure:
Determination of the utility of compounds having Formula (I) as binders to and inhibitors of anti-apoptotic Bcl-xL proteins was performed using the Time Resolved-Fluorescence Resonance Energy Transfer (TR-FRET) Assay. Tb-anti-GST antibody was purchased from Invitrogen (Catalog No. PV4216).
The measurement of competition of compounds of the invention with F-Bak for a Bcl-2 family protein (Bcl-xL) binding site using a Time Resolved Fluorescence Resonance Energy Transfer (TR-FRET) binding assay:
Test compounds were serially diluted in DMSO starting at 50 µM (2× starting concentration; 10% DMSO) and 10 μL transferred into a 384-well plate.
The samples are then mixed on a shaker for 1 minute then incubated for an additional 2 hours at room temperature. For each assay plate, a probe/antibody and protein/antibody/probe mixture were included as a negative and a positive control, respectively. Fluorescence was measured on the ENVISION plate reader (Perkin Elmer) using a 340/35 nm excitation filter and 520/525 (F-Bak) and 495/510 nm ([…]) emission filters. Dissociation constants (Ki) were determined using Wang's equation (Wang, Z. X. An exact mathematical expression for describing competitive binding of two different ligands to a protein molecule. FEBS Lett. 1995 360:111-114). The TR-FRET assay can be performed in the presence of varying concentrations of human serum (HS) or fetal bovine serum (FBS).

Bcl-xL, sequence (Q07817 whole entry): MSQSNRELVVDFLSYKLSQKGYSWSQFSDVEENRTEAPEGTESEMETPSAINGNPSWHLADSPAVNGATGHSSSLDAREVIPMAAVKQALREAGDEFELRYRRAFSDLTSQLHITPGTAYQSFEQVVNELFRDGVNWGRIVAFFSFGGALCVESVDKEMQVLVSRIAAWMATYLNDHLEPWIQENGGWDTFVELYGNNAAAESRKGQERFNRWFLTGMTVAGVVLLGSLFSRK

Consider `O=C(Nc1nc2ccccc2s1)c1cccc2c1CN(c1ccc(-c3cnn(CC45CC6CC(CC(C6)O4)C5)c3)c(C(=O)O)n1)CC2` [Example 13, 6-[8-(1,3-benzothiazol-2-ylcarbamoyl)-3,4-dihydroisoquinolin-2(1H)-yl]-3-[1-(2-oxatricyclo[3.3.1.1^3,7]dec-1-ylmethyl)-1H-pyrazol-4-yl]pyridine-2-carboxylic acid], for which the Ki is < 0.1 nM.

`Cc1c(-c2ccc(N3CCc4cccc(C(=O)Nc5nc6ccccc6s5)c4C3)nc2C(=O)O)cccc1N(C)CC12CC3CC(CC(C3)C1)C2` [Example 55, 6-[8-(1,3-benzothiazol-2-ylcarbamoyl)-3,4-dihydroisoquinolin-2(1H)-yl]-3-(2-methyl-3-{methyl[tricyclo[3.3.1.1^3,7]dec-1-ylmethyl]amino}phenyl)pyridine-2-carboxylic acid]: the affinity corresponds to a Ki of 0.4 nM. Take `N#Cc1c(-c2ccc(N3CCc4cccc(C(=O)Nc5nc6ccccc6s5)c4C3)nc2C(=O)O)cccc1S(=O)(=O)C12CC3CC(CC(C3)C1)C2` [Example 60, 6-[8-(1,3-benzothiazol-2-ylcarbamoyl)-3,4-dihydroisoquinolin-2(1H)-yl]-3-[2-cyano-3-(tricyclo[3.3.1.1^3,7]dec-1-ylsulfonyl)phenyl]pyridine-2-carboxylic acid]: the Ki was < 0.1 nM. Turning to `Cc1c(-c2ccc(N3CCc4cccc(C(=O)Nc5cn6ccncc6n5)c4C3)nc2C(=O)O)cnn1CC12CC3CC(CC(C3)C1)C2` [Example 73, 6-[8-(imidazo[1,2-a]pyrazin-2-ylcarbamoyl)-3,4-dihydroisoquinolin-2(1H)-yl]-3-[5-methyl-1-(tricyclo[3.3.1.1^3,7]dec-1-ylmethyl)-1H-pyrazol-4-yl]pyridine-2-carboxylic acid], the Ki was < 0.1 nM. With `CNCCOC12CC3(C)CC(C)(CC(Cn4ncc(-c5ccc(N6CCc7cccc(C(=O)Nc8nc9ccccc9s8)c7C6)nc5C(=O)O)c4C)(C3)C1)C2` [Example 82, 6-[8-(1,3-benzothiazol-2-ylcarbamoyl)-3,4-dihydroisoquinolin-2(1H)-yl]-3-[1-({3,5-dimethyl-7-[2-(methylamino)ethoxy]tricyclo[3.3.1.1^3,7]dec-1-yl}methyl)-5-methyl-1H-pyrazol-4-yl]pyridine-2-carboxylic acid], the Ki was < 0.1 nM. In the case of `Cc1c(-c2ccc(N3CCc4cccc(C(=O)Nc5nc6ccccc6s5)c4C3)nc2C(=O)O)ccnc1N(C)C1CCCCCCC1` [Example 61, 6-[8-(1,3-benzothiazol-2-ylcarbamoyl)-3,4-dihydroisoquinolin-2(1H)-yl]-2′-[cyclooctyl(methyl)amino]-3′-methyl-3,4′-bipyridine-2-carboxylic acid], the Ki was < 0.1 nM. As for `Cc1c(-c2ccc(N3CCc4cccc(C(=O)Nc5nc6ncccc6s5)c4C3)nc2C(=O)O)cnn1CC12CC3CC(CC(C3)C1)C2` [Example 30, 3-[5-methyl-1-(tricyclo[3.3.1.1^3,7]dec-1-ylmethyl)-1H-pyrazol-4-yl]-6-[8-([1,3]thiazolo[4,5-b]pyridin-2-ylcarbamoyl)-3,4-dihydroisoquinolin-2(1H)-yl]pyridine-2-carboxylic acid], the Ki was < 0.1 nM. Regarding `O=C(Nc1nc2ccccc2s1)c1cccc2c1CN(c1ccc(-c3cnn(CC45CC6CC(CC(C6)C4)C5)c3)c(C(=O)O)n1)CC2` [Example 1, 6-[8-(1,3-benzothiazol-2-ylcarbamoyl)-3,4-dihydroisoquinolin-2(1H)-yl]-3-{1-[tricyclo[3.3.1.1^3,7]dec-1-ylmethyl]-1H-pyrazol-4-yl}pyridine-2-carboxylic acid], the Ki was < 0.1 nM. As for `O=C(Nc1nc2ccccc2s1)c1cccc2c1CN(c1ccc(-c3cnn(CC45CC6CC(CC(Br)(C6)C4)C5)c3)c(C(=O)O)n1)CC2` [Example 11, 6-[8-(1,3-benzothiazol-2-ylcarbamoyl)-3,4-dihydroisoquinolin-2(1H)-yl]-3-(1-{[3-bromotricyclo[3.3.1.1^3,7]dec-1-yl]methyl}-1H-pyrazol-4-yl)pyridine-2-carboxylic acid], the figure is < 0.1 nM; as for `Cc1c(OCC23CC4CC(CC(C4)C2)C3)cccc1-c1ccc(N2CCc3cccc(C(=O)Nc4nc5ccccc5s4)c3C2)nc1C(=O)O` [Example 21, 6-[8-(1,3-benzothiazol-2-ylcarbamoyl)-3,4-dihydroisoquinolin-2(1H)-yl]-3-{2-methyl-3-[tricyclo[3.3.1.1^3,7]dec-1-ylmethoxy]phenyl}pyridine-2-carboxylic acid], 0.6 nM; as for `Cc1c(NC(=O)C23CC4CC(CC(C4)C2)C3)cccc1-c1ccc(N2CCc3cccc(C(=O)Nc4nc5ccccc5s4)c3C2)nc1C(=O)O` [Example 50, 6-[8-(1,3-benzothiazol-2-ylcarbamoyl)-3,4-dihydroisoquinolin-2(1H)-yl]-3-(2-methyl-3-{[tricyclo[3.3.1.1^3,7]dec-1-ylcarbonyl]amino}phenyl)pyridine-2-carboxylic acid], 9 nM. Consider `Cc1c(-c2ccc(N3CCc4cccc(C(=O)Nc5nc6ccccc6s5)c4C3)nc2C(=O)O)cccc1N(C)C(=O)C12CC3CC(CC(C3)O1)C2` [Example 68, 6-[8-(1,3-benzothiazol-2-ylcarbamoyl)-3,4-dihydroisoquinolin-2(1H)-yl]-3-{2-methyl-3-[methyl(2-oxatricyclo[3.3.1.1^3,7]dec-1-ylcarbonyl)amino]phenyl}pyridine-2-carboxylic acid], for which the Ki was < 0.1 nM. For `CC(C)OC12CC3CC(CC(Cn4cc(-c5ccc(N6CCc7cccc(C(=O)Nc8nc9ccccc9s8)c7C6)nc5C(=O)O)cn4)(C3)C1)C2` [Example 12, 6-[8-(1,3-benzothiazol-2-ylcarbamoyl)-3,4-dihydroisoquinolin-2(1H)-yl]-3-(1-{[3-(propan-2-yloxy)tricyclo[3.3.1.1^3,7]dec-1-yl]methyl}-1H-pyrazol-4-yl)pyridine-2-carboxylic acid], the Ki was < 0.1 nM.

Consider `O=C(Nc1nc2ccccc2s1)c1cccc2c1CN(c1ccc(-c3ccc(=O)n(CC45CC6CC(CC(C6)C4)C5)c3)c(C(=O)O)n1)CC2` [Example 85, 6-[8-(1,3-benzothiazol-2-ylcarbamoyl)-3,4-dihydroisoquinolin-2(1H)-yl]-6′-oxo-1′-(tricyclo[3.3.1.1^3,7]dec-1-ylmethyl)-1′,6′-dihydro-3,3′-bipyridine-2-carboxylic acid], for which the Ki was < 0.1 nM. With `COC12CC3CC(CC(Cn4c(C#N)cc(-c5ccc(N6CCc7cccc(C(=O)Nc8nc9ccccc9s8)c7C6)nc5C(=O)O)c4C)(C3)C1)C2` [Example 58, 6-[8-(1,3-benzothiazol-2-ylcarbamoyl)-3,4-dihydroisoquinolin-2(1H)-yl]-3-(5-cyano-1-{[3-methoxytricyclo[3.3.1.1^3,7]dec-1-yl]methyl}-2-methyl-1H-pyrrol-3-yl)pyridine-2-carboxylic acid], the Ki is < 0.1 nM. Consider `O=C(Nc1nc2ccccc2s1)c1cccc2c1CN(c1ccc(-c3cnn(CC45CC6CC(CC(O)(C6)C4)C5)c3)c(C(=O)O)n1)CC2` [Example 6, 6-[8-(1,3-benzothiazol-2-ylcarbamoyl)-3,4-dihydroisoquinolin-2(1H)-yl]-3-(1-{[3-hydroxytricyclo[3.3.1.1^3,7]dec-1-yl]methyl}-1H-pyrazol-4-yl)pyridine-2-carboxylic acid], for which the Ki was < 0.1 nM.

Usually Ki stands for a measure of affinity in units of concentration, obtained from inhibition or displacement.
